In ChEMBL document CHEMBL1141718, “Design, synthesis and antiproliferative activity of two new heteroannelated (-)-muricatacin mimics” (Bioorg Med Chem Lett, 2008):

How the values were obtained:
HeLa = assay: Antiproliferative activity against human HeLa cells after 72 hrs by MTT assay; assay type: functional, cell-based
K562 = assay: Antiproliferative activity against human K562 cells after 72 hrs by MTT assay; assay type: functional, cell-based; details: K562, 72 h
HL-60 = assay: Antiproliferative activity against human HL60 cells after 72 hrs by MTT assay; assay type: functional, cell-based; details: HL-60, 72 h
MRC5 = assay: Antiproliferative activity against human MRC5 cells after 72 hrs by MTT assay; assay type: cell-based; details: MRC5, 72 h
Jurkat = assay: Antiproliferative activity against human Jurkat cells after 72 hrs by MTT assay; assay type: functional, cell-based

| IC50 (HeLa) | IC50 (K562) | IC50 (HL-60) | IC50 (Jurkat) | SMILES | IC50 (MRC5) |
| --- | --- | --- | --- | --- | --- |
| 9.59 µM | 8.61 µM | 1.53 µM | 6.64 µM | CCCCCCCCCOC[C@@H]1O[C@H]2CC(=O)O[C@H]2[C@@H]1O | > 100 µM |
| 0.17 µM | 0.04 µM | 25.9 µM | > 100 µM | CCCCCCCCCCCC[C@@H](O)[C@H]1CCC(=O)O1 | > 100 µM |
| 0.3 µM | 1.25 µM | 0.14 µM | > 100 µM | CCCCCCCCCCOC[C@@H]1O[C@H]2CC(=O)O[C@H]2[C@@H]1O | > 100 µM |
| 21.4 µM | 0.13 µM | 0.15 µM | 3.01 µM | CCCCCCCCCCOC[C@@H](O)[C@H]1CCC(=O)O1 | > 100 µM |
